Values joined by “and” are separate entries in the source; they are usually repeats but may differ in a detail not shown here. Equal entries are not always repeated.
Assays:
[1] = system: LPS-induced TNF production; parameters: species or system C57BL/6 mice; conditions: mouse, iv
mouse macrophages = assay: cells; format: cell-based, C57BL/6 mouse; conditions: for inhibition of LPS-induced TNF production: mouse macrophages, LPS 10 ng/ml, in words
guinea pig macrophages = assay: cells; format: cell-based, Hartley-White guinea pig; conditions: for inhibition of LPS-induced TNF production: guinea pig macrophages, LPS 10 ng/ml, in words
[2] = system: LPS-induced TNF production; assay: In vivo inhibition of LPS-induced TNF production in guinea pigs; conditions: optimum ED50's
HIV LTR = assay: Suppression of LPS-stimulated HIV LTR activation in stably transfected U938 cell line (HIV-1 LTR-CAT); conditions: Human immunodeficiency virus 1, 24 h, read-out: IC50 for suppression of LPS-stimulated HIV LTR activation
Description: Experiments were carried out using one such stably-transfected cell line, i.e., the U938 cell line of Latham et al. (Cell. Immunol. 129:513, 1990). Cells were cultured as described in Latham et al. (1990, supra), and 10^6 cells were treated with a lipid A analog (at a concentration of between 0.0 and 1.0 μM). Thirty minutes after addition of the analog, cells were treated with phorbol myristate acetate (at a concentration of 0.33 ng/ml; described above) and E. coli 0111:B4 LPS (at a concentration of 33 ng/ml; described above). Cells were cultured for an additional 24 hours, harvested, and assayed for CAT activity as described above.

human monocytes = assay: In vitro inhibition of LPS-induced TNF production in human monocytes (ELISA); format: cell-based; conditions: Monocyte, E. coli 0111:B4 LPS 10 ng/ml, 3 h, read-out: ED50 for inhibition of LPS-induced production of TNF
Description: Both bacterial LPS and bacterial lipid A elicit production of tumor necrosis factor (TNF) and IL-1β in cultured human monocytes (J. Immunol. 139:429, 1987).
Monocytes were isolated from human blood by Percoll density gradient centrifugation, plated at approximately 1×10^6 cells/well on a 48-well plate in RPMI 1640 medium (GIBCO, Grand Island, N.Y.) containing 10% human serum (Sigma Chemical Co., St. Louis, Mo.) and incubated for two to three hours. Bacterial LPS (i.e., from E. coli 0111:B4; Sigma Chemicals, St. Louis, Mo.) at 10 ng/ml or lipid A (Daiichi Chemicals, Tokyo, Japan) at 1.0 ng/ml in RPMI 1640 medium were combined with 0.45 ml of RPMI 1640 medium containing 1% human serum and added to the cultured monocytes. In experiments involving a lipid A analog, the analog was added immediately before addition of LPS or lipid A in varying concentrations (e.g., between 0 and 100 μM in a 50 μl aliquot). Following a three-hour incubation period, a 0.1 ml aliquot of the culture supernatant was assayed for the presence of TNF and IL-1β. TNF and IL-1β were assayed using the ELISA assay of R & D Systems (Minneapolis, Minn.) and the instructions of the manufacturer, however, any other standard ELISA kits may be utilized, for example, the kit available from Genzyme, Cambridge, Mass. Experiments were performed in triplicate.

SMILES	inhibition of TNF production in vivo [1]	inhibition of LPS-induced TNF production (mouse macrophages)	inhibition of LPS-induced TNF production (guinea pig macrophages)	further results
CCCCCC/C=C\CCCC(=O)O[C@H](CCCCCCC)CC(=O)O[C@@H]1[C@@H](NC(=O)CC(=O)CCCCCCCCCCC)[C@H](OC[C@H]2O[C@H](OP(=O)(O)O)[C@H](NC(=O)CC(=O)CCCCCCCCCCC)[C@@H](OC(=O)C[C@H](O)CCCCCCC)[C@@H]2O)O[C@H](CO)[C@H]1OP(=O)(O)O [Analog B214-31]	inhibited TNF production	–	–	–
CCCCCC/C=C\CCCC(=O)O[C@H](CCCCCCC)CC(=O)O[C@@H]1[C@@H](NC(=O)CC(=O)CCCCCCCCCCC)[C@H](OC[C@H]2O[C@H](OP(=O)(O)O)[C@H](NC(=O)CC(=O)CCCCCCCCCCC)[C@@H](OC(=O)C[C@H](O)CCCCCCC)[C@@H]2O)O[C@H](CO)[C@H]1OP(=O)(O)O [Analog B214-32]	inhibited TNF production	inhibited LPS-induced TNF production	inhibited LPS-induced TNF production	optimum ED50 for inhibition of LPS-induced TNF production in vivo [2]: 7.5 μg/guinea pig and 5 μg/guinea pig
CCCCCC/C=C\CCCC(=O)O[C@H](CCCCCCC)CC(=O)O[C@@H]1[C@@H](NC(=O)CC(=O)CCCCCCCCCCC)[C@H](OC[C@H]2O[C@H](OP(=O)(O)O)[C@H](NC(=O)CC(=O)CCCCCCCCCCC)[C@@H](OC(=O)C[C@H](O)CCCCCCC)[C@@H]2O)O[C@H](CO)[C@H]1OP(=O)(O)O [Analog B214-33]	inhibited TNF production	–	–	–
CCCCCC/C=C\CCCC(=O)O[C@H](CCCCCCC)CC(=O)O[C@@H]1[C@@H](NC(=O)CC(=O)CCCCCCCCCCC)[C@H](OC[C@H]2O[C@H](OP(=O)(O)O)[C@H](NC(=O)C[C@H](O)CCCCCCCCCCC)[C@@H](OC(=O)C[C@H](O)CCCCCCC)[C@@H]2O)O[C@H](CO)[C@H]1OP(=O)(O)O [Analog B218-32]	inhibited TNF production	–	–	–
CCCCCC/C=C\CCCC(=O)O[C@H](CCCCCCC)CC(=O)O[C@@H]1[C@@H](NC(=O)/C=C/CCCCCCCCCCC)[C@H](OC[C@H]2O[C@H](OP(=O)(O)O)[C@H](NC(=O)/C=C/CCCCCCCCCCC)[C@@H](OC(=O)C[C@H](O)CCCCCCC)[C@@H]2O)O[C@H](CO)[C@H]1OP(=O)(O)O [Analog B286-32]	inhibited TNF production	–	–	–
CCCCCC/C=C\CCCCO[C@H](CCCCCCC)CC(=O)O[C@@H]1[C@@H](NC(=O)CC(=O)CCCCCCCCCCC)[C@H](OC[C@H]2O[C@H](OP(=O)(O)O)[C@H](NC(=O)CC(=O)CCCCCCCCCCC)[C@@H](OC(=O)C[C@H](O)CCCCCCC)[C@@H]2O)O[C@H](CO)[C@H]1OP(=O)(O)O [Analog B294-32]	inhibited TNF production	–	–	–
CCCCCC/C=C\CCCC(=O)O[C@H](CCCCCCC)CC(=O)O[C@@H]1[C@@H](NC(=O)CC(=O)CCCCCCCCCCC)[C@H](OC[C@H]2O[C@H](OP(=O)(O)O)[C@H](NC(=O)/C=C/CCCCCCCCCCC)[C@@H](OC(=O)C[C@H](O)CCCCCCC)[C@@H]2O)O[C@H](CO)[C@H]1OP(=O)(O)O [Analog B313-32]	inhibited TNF production	–	–	–
CCCCCC/C=C\CCNC(=O)O[C@H](CCCCCCC)CC(=O)O[C@@H]1[C@@H](NC(=O)CC(=O)CCCCCCCCCCC)[C@H](OC[C@H]2O[C@H](OP(=O)(O)O)[C@H](NC(=O)CC(=O)CCCCCCCCCCC)[C@@H](OC(=O)C[C@H](O)CCCCCCC)[C@@H]2O)O[C@H](CO)[C@H]1OP(=O)(O)O [Analog B379-32]	inhibited TNF production	–	–	–
CCCCCCC/C=C/C(=O)O[C@@H]1[C@@H](NC(=O)CC(=O)CCCCCCCCCCC)[C@H](OC[C@H]2O[C@H](OP(=O)(O)O)[C@H](NC(=O)CC(=O)CCCCCCCCCCC)[C@@H](OC(=O)C[C@H](O)CCCCCCC)[C@@H]2O)O[C@H](CO)[C@H]1OP(=O)(O)O [Analog B400-32]	inhibited TNF production	–	–	IC50 (HIV LTR): 15 to 260 nM
CCCCCC/C=C\CCCC(=O)O[C@H](CCCCCCC)CC(=O)O[C@@H]1[C@@H](NC(=O)CC(=O)CCCCCCCCCCC)[C@H](OC[C@H]2O[C@H](OP(=O)(O)O)[C@H](NC(=O)CC(=O)CCCCCCCCCCC)[C@@H](OCC[C@H](O)CCCCCCC)[C@@H]2O)O[C@H](CO)[C@H]1OP(=O)(O)O [Analog B410-32]	inhibited TNF production	inhibited LPS-induced TNF production	inhibited LPS-induced TNF production	–
CCCCCC/C=C\CCCC(=O)O[C@H](CCCCCCC)CC(=O)O[C@@H]1[C@@H](NC(=O)CS(=O)(=O)CCCCCCCCCCC)[C@H](OC[C@H]2O[C@H](OP(=O)(O)O)[C@H](NC(=O)CS(=O)(=O)CCCCCCCCCCC)[C@@H](OC(=O)C[C@H](O)CCCCCCC)[C@@H]2O)O[C@H](CO)[C@H]1OP(=O)(O)O [Analog B425-32]	inhibited TNF production	–	–	–
CCCCCC/C=C\CCCC(=O)O[C@H](CCCCCCC)CC(=O)O[C@@H]1[C@@H](NC(=O)CC(=O)CCCCCCCCCCC)[C@@H](OC[C@H]2O[C@H](OP(=O)(O)O)[C@H](NC(=O)CC(=O)CCCCCCCCCCC)[C@@H](OC(=O)C[C@H](O)CCCCCCC)[C@@H]2O)O[C@H](CO)[C@H]1OP(=O)(O)O [Analog B426-32]	inhibited TNF production	–	–	–
CCCCCC/C=C\CCCC(=O)O[C@H](CCCCCCC)CCO[C@@H]1[C@@H](NC(=O)CC(=O)CCCCCCCCCCC)[C@H](OC[C@H]2O[C@H](OP(=O)(O)O)[C@H](NC(=O)CC(=O)CCCCCCCCCCC)[C@@H](OCC[C@H](O)CCCCCCC)[C@@H]2O)O[C@H](CO)[C@H]1OP(=O)(O)O [Analog B427-32]	–	inhibited LPS-induced TNF production	inhibited LPS-induced TNF production	IC50 (HIV LTR): 15 to 260 nM
CCCCCC/C=C\CCCC(=O)O[C@H](CCCCCCC)CCO[C@@H]1[C@@H](NC(=O)C[S+]([O-])CCCCCCCCCCC)[C@H](OC[C@H]2O[C@H](OP(=O)(O)O)[C@H](NC(=O)C[S+]([O-])CCCCCCCCCCC)[C@@H](OCC[C@H](O)CCCCCCC)[C@@H]2O)O[C@H](CO)[C@H]1OP(=O)(O)O (stereo partly shown) [Analog B459-32]	–	inhibited LPS-induced TNF production	inhibited LPS-induced TNF production	–
CCCCCC/C=C\CCCC(=O)O[C@H](CCCCCCCC)CCO[C@@H]1[C@@H](NC(=O)CC(=O)CCCCCCCCCCC)[C@H](OC[C@H]2O[C@H](OP(=O)(O)O)[C@H](NC(=O)CC(=O)CCCCCCCCCCC)[C@@H](OCC[C@H](O)CCCCCCCC)[C@@H]2O)O[C@H](COC)[C@H]1OP(=O)(O)O [Analog B464-32]	–	inhibited LPS-induced TNF production	inhibited LPS-induced TNF production	–
CCCCCC/C=C\CCCC(=O)O[C@H](CCCCCCC)CCO[C@@H]1[C@@H](NC(=O)CC(=O)CCCCCCCCCCC)[C@H](OC[C@H]2O[C@H](OP(=O)(O)O)[C@H](NC(=O)CC(=O)CCCCCCCCCCC)[C@@H](OCC[C@H](O)CCCCCCC)[C@@H]2O)O[C@H](COC)[C@H]1OP(=O)(O)O [Analog B531-35]	–	–	–	IC50 (human monocytes): ~0.02 nM; IC50 (mouse macrophages; Mus musculus, Macrophage, 3 h, read-out: ED50 for inhibition of LPS-induced TNF production): 2.26 nM; ED50 for inhibition of TNF production in vivo [1]: 16.2 μg/mouse; IC50 (guinea pig macrophages; Cavia porcellus, Macrophage, 3 h, read-out: ED50 for inhibition of LPS-induced TNF production): 0.66 nM
CCCCCC/C=C\CCCC(=O)O[C@H](CCCCCCC)CCO[C@@H]1[C@@H](NC(=O)CC(=O)CCCCCCCCCCC)[C@H](OC[C@H]2O[C@H](OP(=O)(O)O)[C@H](NC(=O)CC(=O)CCCCCCCCCCC)[C@@H](OCC[C@H](O)CCCCCCC)[C@@H]2OC(C)=O)O[C@H](COC)[C@H]1OP(=O)(O)O [Analog B718-35]	–	inhibited LPS-induced TNF production	inhibited LPS-induced TNF production	–
